According to PubChem BioAssay (NCI):
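Tested at 5 concentrations; 48 h exposure; 96-well plates; endpoints linearly interpolated, else capped at highest concentration. Here, GI50 denotes the concentration required for 50% inhibition of growth. The concentration for full growth arrest is given as TGI.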

Each molecule was assayed on PC-3 prostate (assay: growth of human tumour cells (NCI), 48 h).

SMILES	GI50	TGI
O=c1[nH]c(O)c(C=Nc2ccc(-c3nc4ccccc4o3)cc2)c(=O)[nH]1	> 100 µM	> 100 µM
COc1ccc(-c2cc(=O)oc3c4c(ccc23)OCN(Cc2ccc(F)cc2)C4)cc1	15.8 µM	44.1 µM

What follows are molecules tested on RPMI-8226 leukemia (assay: growth of human tumour cells (NCI), 48 h).

SMILES	GI50	TGI
COc1nc(=O)n(C2C=CC(=O)O2)cc1F (centres undefined)	3.26 µM	13.4 µM
CNCCCNc1ccnc2cc(Cl)ccc12	20 µM	55.7 µM
O=c1[nH]c(O)c(C=Nc2ccc(-c3nc4ccccc4o3)cc2)c(=O)[nH]1	27.5 µM	> 100 µM
COc1ccc(-c2cc(=O)oc3c4c(ccc23)OCN(Cc2ccc(F)cc2)C4)cc1	15.4 µM	37.1 µM

What follows are molecules tested on RXF 393 renal (assay: growth of human tumour cells (NCI), 48 h).

SMILES	GI50	TGI
COc1nc(=O)n(C2C=CC(=O)O2)cc1F (centres undefined)	1.94 µM	5.03 µM
CNCCCNc1ccnc2cc(Cl)ccc12	14.5 µM	65.4 µM
O=c1[nH]c(O)c(C=Nc2ccc(-c3nc4ccccc4o3)cc2)c(=O)[nH]1	89 µM	> 100 µM
COc1ccc(-c2cc(=O)oc3c4c(ccc23)OCN(Cc2ccc(F)cc2)C4)cc1	13 µM	29.2 µM

What follows are molecules tested on SF-268 CNS (assay: growth of human tumour cells (NCI), 48 h).

SMILES	GI50	TGI
COc1nc(=O)n(C2C=CC(=O)O2)cc1F (centres undefined)	15.5 µM	37.3 µM
CNCCCNc1ccnc2cc(Cl)ccc12	22.6 µM	98.3 µM
O=c1[nH]c(O)c(C=Nc2ccc(-c3nc4ccccc4o3)cc2)c(=O)[nH]1	> 100 µM	> 100 µM
COc1ccc(-c2cc(=O)oc3c4c(ccc23)OCN(Cc2ccc(F)cc2)C4)cc1	16.6 µM	34.8 µM

What follows are molecules tested on SF-295 CNS (assay: growth of human tumour cells (NCI), 48 h).

SMILES	GI50	TGI
COc1nc(=O)n(C2C=CC(=O)O2)cc1F (centres undefined)	22.9 µM	66.1 µM
CNCCCNc1ccnc2cc(Cl)ccc12	27.1 µM	> 100 µM
O=c1[nH]c(O)c(C=Nc2ccc(-c3nc4ccccc4o3)cc2)c(=O)[nH]1	23.7 µM	68.9 µM
COc1ccc(-c2cc(=O)oc3c4c(ccc23)OCN(Cc2ccc(F)cc2)C4)cc1	15 µM	30 µM

Each molecule was assayed on SF-539 CNS (assay: growth of human tumour cells (NCI), 48 h).

SMILES	GI50	TGI
COc1nc(=O)n(C2C=CC(=O)O2)cc1F (centres undefined)	2.22 µM	5.77 µM
CNCCCNc1ccnc2cc(Cl)ccc12	17 µM	33.1 µM
O=c1[nH]c(O)c(C=Nc2ccc(-c3nc4ccccc4o3)cc2)c(=O)[nH]1	27.4 µM	62.7 µM
COc1ccc(-c2cc(=O)oc3c4c(ccc23)OCN(Cc2ccc(F)cc2)C4)cc1	15.8 µM	32.5 µM

These molecules were tested on SK-MEL-2 melanoma (assay: growth of human tumour cells (NCI), 48 h).

SMILES	GI50	TGI
COc1nc(=O)n(C2C=CC(=O)O2)cc1F (centres undefined)	16.5 µM	54.1 µM
CNCCCNc1ccnc2cc(Cl)ccc12	19.6 µM	37.9 µM
O=c1[nH]c(O)c(C=Nc2ccc(-c3nc4ccccc4o3)cc2)c(=O)[nH]1	37.8 µM	> 100 µM
COc1ccc(-c2cc(=O)oc3c4c(ccc23)OCN(Cc2ccc(F)cc2)C4)cc1	16.3 µM	31.3 µM

What follows are molecules tested on SK-MEL-28 melanoma (assay: growth of human tumour cells (NCI), 48 h).

SMILES	GI50	TGI
COc1nc(=O)n(C2C=CC(=O)O2)cc1F (centres undefined)	6.92 µM	20.1 µM
